Data on 19 compounds can be found in patent publication US8946216B2, “Indazole derivatives useful as ERK inhibitors” (Merck Sharp & Dohme Corp., priority 2010, dated 2015).

SMILES strings stand for the structures.

The target in experiment [1] is unphosphorylated Mouse ERK2 protein (inactive ERK2) (Mus musculus, UniProt P63085). The experiment is described as follows: Coupled ERK2 (cERK) assay, coupled MEK1/ERK2 IMAP. It counts as biochemical. The following applies: 30 min preincubation with inactive ERK2, then activation by human MEK1; 30 μM ATP; fluorescence polarization; read-out: cERK2 IC50. An excerpt: • 1. M. W. Pantoliana, E. C. Petrella, J. D. Kwasnoski, V. S. Lobanov, J. Myslik, E. Graf, T. Carver, E. Asel, B. A. Springer, P. Lane, F. R. Salemme, High-density miniaturized thermal shift assays as a general strategy for drug discovery, J. Biomol. Screen 6 (2001) 429-440 • 2. J. F. Brandts, L.-N. Lin, Study of strong to ultratight protein interactions using differential scanning calorimetry, Biochemistry 29 (1990) 6927-6940 • 3. Mayhood, T. W., Windsor, W. T., Ligand binding affinity determined by temperature-dependent circular dichroism: Cyclin-dependent kinase 2 inhibitors, Analytical Biochemistry 345 (2005) 187-197 Coupled ERK2 (cERK) Assay:
14 μl of kinase buffer (10 mM Tris.HCl pH 7.2, 10 mM MgCl2, 0.01% Tween-20, 1 mM DTT) containing 0.4 ng unphosphorylated Mouse ERK2 protein was added to each well of a black 384-well assay plate. […] DMSO concentration during initial incubation is 6.7%. ERK2 activity was determined to be insensitive to DMSO concentrations up to 20%. ERK2 was then activated and it's kinase activity measured by the addition of 10 μl kinase buffer with the following components (final concentration per reaction): 2 ng active (phosphorylated) human MEK1 protein and 4 μM (total) ERK2 IMAP substrate peptides (3.9 μM unlabeled IPTTPITTTYFFFK-CONH2 and 100 nM IPTTPITTTYFFFK(5-carboxyfluorescein)-CONH2) and 30 μM ATP. DMSO concentration during ERK activation was 4%. After one hour, reactions were terminated by addition of 60 μl IMAP detections beads in binding buffer (Molecular Devices). Binding was allowed to equilibrate for 30 minutes before reading the plate on an LJL Analyst Fluorescence Polarization plate reader. […] Active compounds were reconfirmed in an independent assay.
On the technique in general: In fluorescence polarisation assays a small probe gives low polarisation when free and higher when bound to something large.

Experiment [2] has as its target fully phosphorylated, active Mouse ERK2 protein (Mus musculus, UniProt P63085). The experiment is described as follows: Active ERK2 (aERK) assay, IMAP format. The following applies: 30 min preincubation; 1 μM substrate peptide, 30 μM ATP; fluorescence polarization; read-out: aERK2 IC50. It counts as biochemical. The procedure: Active ERK2 (aERK) Assay:
Activated ERK2 activity was also determined in the IMAP assay format using the procedure outlined above. 1 μl of 25× compound was added to 14 μl of kinase buffer containing 0.25 ng fully phosphorylated, active Mouse ERK2 protein. Following a 30 minute incubation, the reactions were initiated by addition of 10 μl of kinase buffer containing 1 μM ERK2 IMAP substrate peptide (0.9 μM unlabeled IPTTPITTTYFFFK--CONH2 and 100 nM IPTTPITTTYFFFK(5-carboxyfluorescein)-CONH2) and 30 μM ATP. Reactions proceeded for 30 minutes before termination by addition of 60 μl IMAP detection beads in binding buffer. Plates were read as above after 30 minute binding equilibration. Active compounds were reconfirmed in an independent assay.

The next experiment has as its target ERK protein (Homo sapiens, UniProt P28482). The experiment is described as follows: TdF (Temperature Dependence Fluorescence, thermal shift) assay for ERK. Particulars: read-out: TdF Kd; 3 μM ERK protein, 15, 50 or 100 μM compound, Sypro Orange; Kd calculated from ΔTm; uncertainty estimated ±50%. It counts as binding. An excerpt:
Assays: TdF Assay for ERK
The SAR (Structure Activity Relationship) for ERK ligands covered by this invention was interrogated using the TdF (Temperature Dependence Fluorescence) assay or best known as thermal shift assay. The TdF assay was mainly conducted in the 96-well based CHROMO-4 real time fluorescence plate reader (BioRad). The Sypro Orange (Sigma-Aldrich), environmentally sensitive fluorescence dye, was used to monitor the protein folding-unfolding transition. Protein-ligand binding was gauged by the change (or shift) in the unfolding transition temperature (ΔTm) acquired at protein alone with respect to protein in the presence of ligand of interest.
Compound of interest was first prepared in DMSO stock (typical concentration: 10 mM). Sample of 20 μL was then added into the 96-well PCR plate, where it consisted of 3 μM. […] Final percentage of DMSO resided in the sample was 2%. The sample plate was heated from 30° C. to 90° C. with thermal ramping rate of 1 ° C./min. The fluorescence signals were acquired with excitation and emission wavelengths centered at 490 and 560 nm respectively. The instrument thermal stability was ±0.2° C. The melting temperatures (Tm) for ERK protein under aforementioned conditions occurred at 61.0±0.2° C. and 64.8±0.2° C. respectively.
Theoretical Basis for TdF-based Ligand Binding Affinity Constant
The derivation of TdF-based ligand binding affinity constant (Kd) followed closely those previously formulated by Brandts and Lin [2]. In brief, the binding constant of the ligand at the Tm is expressed as below: […]
where T0 is the midpoint of unfolding for unliganded protein and Tm is the midpoint of unfolding in presence of ligand. [LTm] is free ligand at Tm. The ΔHu and ΔCpu are the enthalpy of unfolding and heat capacity change of unfolding for the protein respectively. Following algorithm derived by Winsor and coworker, the T0, ΔHu and ΔCpu can be determined separately from nonlinear regression fitting the protein alone melting curve:
Where F(T) is the observed fluorescence intensity at any temperature T, Yn and Yu are the predicted fluorescence intensities for fully folded and unfolded protein, respectively; mn and mu are slope correction for changes in Yn and Yu with respect to changes in temperature (analogously replace T0 with Tm in the above equation for liganded protein to yield Tm).
where ΔHL(T) is the van't Hoff enthalpy of ligand binding at temperature T and ΔCpL is the heat capacity upon ligand binding. For simplicity, the ΔCpL and ΔHL(T) were set to zero and −7 kcal/mol respectively. The uncertainty in the calculated ligand binding affinity constant was estimated to be ±50%.

Chain of ERK protein (P28482 2-360): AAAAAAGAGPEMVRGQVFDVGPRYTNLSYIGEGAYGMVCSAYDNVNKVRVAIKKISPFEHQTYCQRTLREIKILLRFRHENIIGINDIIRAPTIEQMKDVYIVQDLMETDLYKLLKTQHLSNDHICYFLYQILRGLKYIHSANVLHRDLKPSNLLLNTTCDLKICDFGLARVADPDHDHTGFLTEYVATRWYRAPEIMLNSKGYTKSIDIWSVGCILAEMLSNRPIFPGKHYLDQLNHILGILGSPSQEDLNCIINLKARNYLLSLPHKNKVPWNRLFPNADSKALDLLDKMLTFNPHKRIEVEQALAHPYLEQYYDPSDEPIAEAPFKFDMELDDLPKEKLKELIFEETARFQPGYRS
Chain of fully phosphorylated, active Mouse ERK2 protein (P63085 whole entry): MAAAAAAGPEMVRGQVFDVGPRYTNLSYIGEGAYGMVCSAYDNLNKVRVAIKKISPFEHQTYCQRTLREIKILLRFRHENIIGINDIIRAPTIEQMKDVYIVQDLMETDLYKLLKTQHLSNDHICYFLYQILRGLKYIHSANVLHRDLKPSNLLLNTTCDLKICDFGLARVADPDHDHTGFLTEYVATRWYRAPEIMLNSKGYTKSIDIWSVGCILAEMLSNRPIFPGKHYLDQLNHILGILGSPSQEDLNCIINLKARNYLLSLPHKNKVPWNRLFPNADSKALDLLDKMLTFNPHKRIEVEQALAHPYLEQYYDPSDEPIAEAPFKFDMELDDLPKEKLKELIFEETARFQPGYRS
Chain of unphosphorylated Mouse ERK2 protein (inactive ERK2) (P63085 whole entry): as above

Take `CC(C)Oc1ccc(-c2n[nH]c3ccc(NC(=O)C4CN(Cc5ccccc5)CCO4)cc23)cn1` (centres unmarked) [Compound 1, N-[3-[6-(1-METHYLETHOXY)-3-PYRIDINYL]-1H-INDAZOL-5-YL]-4-(PHENYLMETHYL)-2-MORPHOLINECARBOXAMIDE]: the 50% inhibitory concentration (IC50) in experiment [1] came out at 532 nM; in experiment [2], 1000 nM. Further, on ERK protein, the Kd was 240 nM.
For `O=C(Nc1ccc2[nH]nc(-c3ccncc3)c2c1)C1CN(Cc2cscn2)CCO1` (centres unmarked) [Compound 2, N-[3-(4-PYRIDINYL)-1H-INDAZOL-5-YL]-4-(4-THIAZOLYLMETHYL)-2-MORPHOLINECARBOXAMIDE] the same measures were 1840 nM, 583 nM and 546 nM.
For `O=C(Nc1ccc2[nH]nc(-c3ccncc3)c2c1)C1CN(Cc2ccccc2F)CCO1` (centres unmarked) [Compound 4, 4-[(2-FLUOROPHENYL)METHYL]-N-[3-(4-PYRIDINYL)-1H-INDAZOL-5-YL]-2-MORPHOLINECARBOXAMIDE] the same measures were 29.3 nM, 20.7 nM and 20 nM.
In the case of `O=C(Nc1ccc2[nH]nc(-c3ccncc3)c2c1)C1CN(Cc2c(F)cccc2C(F)(F)F)CCO1` (centres unmarked) [Compound 39, 4-[[2-FLUORO-6-(TRIFLUOROMETHYL)PHENYL]METHYL]-N-[3-(4-PYRIDINYL)-1H-INDAZOL-5-YL]-2-MORPHOLINECARBOXAMIDE], the IC50 in experiment [1] came out at 4760 nM. In addition, the Kd at ERK protein was 715 nM.
Consider `COc1cc(F)c(CN2CCOC(C(=O)Nc3ccc4[nH]nc(-c5ccncc5)c4c3)C2)cc1OC` (centres unmarked) [Compound 40, 4-[(2-FLUORO-4,5-DIMETHOXYPHENYL)METHYL]-N-[3-(4-PYRIDINYL)-1H-INDAZOL-5-YL]-2-MORPHOLINECARBOXAMIDE], for which, in experiment [1], the IC50 worked out at 1110 nM. For the same compound, the Kd at ERK protein was 1190 nM.
As to `O=C(Nc1ccc2[nH]nc(-c3ccncc3)c2c1)C1CN(Cc2ccc(Cl)cc2F)CCO1` (centres unmarked) [Compound 41, 4-[(4-CHLORO-2-FLUOROPHENYL)METHYL]-N-[3-(4-PYRIDINYL)-1H-INDAZOL-5-YL]-2-MORPHOLINECARBOXAMIDE], the IC50 in experiment [1] is 419 nM. Moreover, on ERK protein, the Kd is 584 nM.
The matching figures for `O=C(Nc1ccc2[nH]nc(-c3ccncc3)c2c1)C1CN(Cc2cc(C(F)(F)F)ccc2F)CCO1` (centres unmarked) [Compound 42, 4-[[2-FLUORO-5-(TRIFLUOROMETHYL)PHENYL]METHYL]-N-[3-(4-PYRIDINYL)-1H-INDAZOL-5-YL]-2-MORPHOLINECARBOXAMIDE]: 2660 nM and 1260 nM.
In the case of `O=C(Nc1ccc2[nH]nc(-c3ccncc3)c2c1)C1CN(Cc2ccc(F)c(Cl)c2)CCO1` (centres unmarked) [Compound 49, 4-[(3-CHLORO-4-FLUOROPHENYL)METHYL]-N-[3-(4-PYRIDINYL)-1H-INDAZOL-5-YL]-2-MORPHOLINECARBOXAMIDE], the IC50 in experiment [1] was 1780 nM. Further, the Kd on ERK protein is 910 nM.
Consider `O=C(Nc1ccc2[nH]nc(-c3ccncc3)c2c1)C1CN(Cc2cc(F)ccc2F)CCO1` (centres unmarked) [Compound 51, 4-[(2,5-DIFLUOROPHENYL)METHYL]-N-[3-(4-PYRIDINYL)-1H-INDAZOL-5-YL]-2-MORPHOLINECARBOXAMIDE], for which the IC50 in experiment [1] stood at 400 nM. For the same compound, on ERK protein, the Kd was 727 nM.
For `O=C(Nc1ccc2[nH]nc(-c3ccncc3)c2c1)C1CNCCN1c1ccccc1` (centres unmarked) [Compound 54, 1-PHENYL-N-[3-(4-PYRIDINYL)-1H-INDAZOL-5-YL]-2-PIPERAZINECARBOXAMIDE] the same measures were 168 nM and 30 nM.
For `O=C(Nc1ccc2[nH]nc(-c3ccncc3)c2c1)[C@@H]1CCN(Cc2ccccc2)C1` [Compound 62, 1-(PHENYLMETHYL)-N-[3-(4-PYRIDINYL)-1H-INDAZOL-5-YL]-3(R)-PYRROLIDINECARBOXAMIDE], the IC50 in experiment [2] was determined as 287 nM. Further, the Kd at ERK protein is 34.5 nM.
With `O=C(Nc1ccc2[nH]nc(-c3ccncc3)c2c1)C1CN(CCCc2ccccc2)CCS1` (centres unmarked) [Compound 67, 4-(3-PHENYLPROPYL)-N-[3-(4-PYRIDINYL)-1H-INDAZOL-5-YL]-2-THIOMORPHOLINECARBOXAMIDE], in experiment [2], the IC50 worked out at 1000 nM.
Still for that read-out and setting: with `O=C(Nc1ccc2[nH]nc(-c3ccncc3)c2c1)C1CN(CCc2ccccc2)CCS1` (centres unmarked) [Compound 68, 4-(2-PHENYLETHYL)-N-[3-(4-PYRIDINYL)-1H-INDAZOL-5-YL]-2-THIOMORPHOLINECARBOXAMIDE] the figure was 895 nM.
In the case of `O=C(Nc1ccc2[nH]nc(-c3ccncc3)c2c1)C1CN(Cc2ccccc2)CCC12OCCO2` (centres unmarked) [Compound 72, 8-(PHENYLMETHYL)-N-[3-(4-PYRIDINYL)-1H-INDAZOL-5-YL]-1,4-DIOXA-8-AZASPIRO[4.5]DECANE-6-CARBOXAMIDE], in experiment [2], the IC50 was determined as 1000 nM. Besides, the Kd at ERK protein was 222 nM.
For `CC(c1ccccc1)N1CCC[C@H](C(=O)Nc2ccc3[nH]nc(-c4ccncc4)c3c2)C1` (stereo partly drawn) [Compound 73, 1-(1-PHENYLETHYL)-N-[3-(4-PYRIDINYL)-1H-INDAZOL-5-YL]-3(S)-PIPERIDINECARBOXAMIDE] the same measures were 192 nM and 25.9 nM.
`CNC(=O)c1n[nH]c2ccc(NC(=O)C3CN(Cc4ccccc4F)CCS3)cc12` (centres unmarked) [Compound 75, 5-[[[4-[(2-FLUOROPHENYL)METHYL]-2-THIOMORPHOLINYL]CARBONYL]AMINO]-N-METHYL-1H-INDAZOLE-3-CARBOXAMIDE]: the IC50 in experiment [1] worked out at 350 nM. In addition, the Kd on ERK protein was 250 nM.
For the compound `CCCCNC(=O)c1n[nH]c2ccc(NC(=O)C3CN(Cc4ccccc4F)CCS3)cc12` (centres unmarked) [Compound 76, N-BUTYL-5-[[[4-[(2-FLUOROPHENYL)METHYL]-2-THIOMORPHOLINYL]CARBONYL]AMINO]-1H-INDAZOLE-3-CARBOXAMIDE], the IC50 in experiment [1] amounted to 873 nM. Also, at ERK protein, the Kd was 920 nM.
For `O=C(NCc1ccccc1)c1n[nH]c2ccc(NC(=O)C3CN(Cc4ccccc4F)CCS3)cc12` (centres unmarked) [Compound 77, 5-[[[4-[(2-FLUOROPHENYL)METHYL]-2-THIOMORPHOLINYL]CARBONYL]AMINO]-N-(PHENYLMETHYL)-1H-INDAZOLE-3-CARBOXAMIDE] the same measures were 3100 nM and 1800 nM.
Consider `CN1CC(Cc2ccccc2)CC(C(=O)Nc2ccc3[nH]nc(-c4ccncc4)c3c2)C1` (centres unmarked) [Compound 78, 1-METHYL-5-(PHENYLMETHYL)-N-[3-(4-PYRIDINYL)-1H-INDAZOL-5-YL]-3-PIPERIDINECARBOXAMIDE], for which the IC50 in experiment [2] is 1.9 nM.

By IC50 is commonly meant the concentration that gives 50% inhibition. What is called Kd is the equilibrium constant for the complex coming apart.
